Columns and labels:
in vivo = details: Holstein, bovine, plasma, subcutaneous, 2.5 mg/kg
Description: (§1) The primary clinical endpoint for efficacy was treatment failure/success over a 14-day observation period. Clinically normal beef calves (150-200 kg) at moderate risk for BRD were dosed on arrival to the feedlot. Animals (N=114/group) received saline (T01), 5 mg/kg M9 (T02), 10 mg/kg M9 (T03) or Zactran (T04).

[1] = test system: IL-17 / IFN-γ producing CD4+ T helper cells; test: In vivo genomics challenge model: T helper subtypes and airway IL-17; set-up: species or system Holstein cattle
[2] = Lactone A / lactone B equilibration in aqueous solution; format: physicochemical; details: pH>6 and temperatures >60° C.
Description: The H-11 lactones were separated by HPLC using an Agilent 1100 quaternary pump and diode array detector (250 nm) with an X-select CSH C18 column (150×4.6 mm, 2.5 μm) at 50° C. using a gradient mobile phase (mp) comprising 0.03% H2SO4 in water (mpA) and acetonitrile (mpB) over 16 minutes. Lactone A eluted at 5.8 minutes (area % 92.4) and lactone B eluted at 5.2 minutes (area % 7.6).
In an aqueous solution, Example H-11 exists as an equilibrated mixture of two lactone isomers as shown above. The ratio is approximately 9:1 lactone A:B. The rate of equilibration depends on pH and temperature, with neutral pH giving faster equilibration, pH˜5-6 giving much slower equilibration, and higher temperatures resulting in faster equilibration. Equilibration occurs in under 1-hour at pH>6 and temperatures >60° C. H-11 isomerization is a 6 exo-Trig cyclization and is a favored reaction by Baldwin's Rules. The dominant isomer, lactone-A, is a 15-membered macrocyclic lactone, while the minor isomer, lactone-B, is a 13-membered macrocyclic lactone. […]

E. coli = test: In-vitro MIC model (CLSI broth micro-dilution); details: Escherichia coli, ATCC25922, read-out: Comparative MIC's, E. coli ATCC 25922
[3] = Plasma pharmacokinetics in cattle; details: following a 10 mg/kg dose, separate PK study
Description: as §1

P. multocida = test: Murine P. multocida intranasal challenge study with lung tissue RNA sequence analysis; format: in vivo, mice
Description: In one murine P. multocida intranasal challenge study, mice were administered tulathromycin (16 mg/kg; T02), M9 (32 mg/kg; T03), or ceftiofur (9 mg/kg; T04) by subcutaneous injection 18 hours after bacterial challenge (5×10^3 CFU/mouse) for lung tissue RNA sequence analysis. Survival at Day 7 was about 80%, 50%, and 90% for T02, T03, and T04, respectively, compared to placebo at 0%. Differential gene expression from total lung tissue RNA sequence analysis indicated at least 226 unique genes were up or down regulated (with significance) for T03. Output from ingenuity pathway analysis of these unique genes predicted major upstream regulators of the involved pathways. Data was analyzed based on the number of genes being modulated in the same direction that were associated with a given upstream regulator. An activation z-score of 2 or greater is considered significant and the direction change is indicated by +(activated) or − (inhibited). The top 5 pathways included: IL-9 signaling, glucocorticoid receptor signaling, prolactin signaling, JAK STAT signaling, and IL-17 signaling. The top 6 upstream regulators (activation z-score) included: lipopolysaccharide (−6.725), TNF (−4.669), IFNG (−5.759), IL-1β (−5.947), STAT1 (−2.787), and poly rl:rC-RNA (−5.289). Even though this study was run in the murine model, the top upstream regulators identified as being modulated by M9 include an almost ubiquitous overlap with the pathways identified in the natural disease study as being key mediators in BRD, and therefore is modulating highly relevant pathways in BRD pathobiology.

[4] = M9 32 mg/kg (T03), ingenuity pathway analysis, − = inhibited

Structure (SMILES): CCCNC[C@]1(O)[C@H](C)O[C@@H](O[C@H]2[C@H](C)[C@@H](O[C@@H]3O[C@H](C)C[C@H](N(C)C(=O)Nc4ccccc4)[C@H]3O)[C@](C)(O)C[C@@H](C)CN[C@H](C)[C@@H](O)[C@](C)(O)[C@@H](CC)OC(=O)[C@@H]2C)C[C@@]1(C)OC [Example H-91, 1-((2S,3R,4S,6R)-2-(((2R,3S,4R,5R,8R,10R,11R,12S,13S,14R)-2-ethyl-3,4,10-trihydroxy-13-(((2R,4R,5S,6S)-5-hydroxy-4-methoxy-4,6-dimethyl-5-((propylamino)methyl)tetrahydro-2H-pyran-2-yl)oxy)-3,5,8,10,12,14-hexamethyl-15-oxo-1-oxa-6-azacyclopentadecan-11-yl)oxy)-3-hydroxy-6-methyltetrahydro-2H-pyran-4-yl)-1-methyl-3-phenylurea]
- Cmax (in vivo): 152 ng/mL

Structure (SMILES): CCCNC[C@]1(O)[C@H](C)O[C@@H](O[C@H]2[C@H](C)[C@@H](O[C@@H]3O[C@H](C)C[C@H](N(C)C(=O)N(C)c4ccccc4)[C@H]3O)[C@](C)(O)C[C@@H](C)CN[C@H](C)[C@@H](O)[C@](C)(O)[C@@H](CC)OC(=O)[C@@H]2C)C[C@@]1(C)OC [Example H-11, 1-((2S,3R,4S,6R)-2-(((2R,3S,4R,5R,8R,10R,11R,12S,13S,14R)-2-ethyl-3,4,10-trihydroxy-13-(((2R,4R,5S,6S)-5-hydroxy-4-methoxy-4,6-dimethyl-5-((propylamino)methyl)tetrahydro-2H-pyran-2-yl)oxy)-3,5,8,10,12,14-hexamethyl-15-oxo-1-oxa-6-azacyclopentadecan-11-yl)oxy)-3-hydroxy-6-methyltetrahydro-2H-pyran-4-yl)-1,3-dimethyl-3-phenylurea]
- Th1:Th17 ratio post-treatment ([1]; 0.1 mg/kg (T02), blood at 24 and 48 hours, FIG. 9): increase
- IL-17 levels in the airway (BAL fluid, consolidated lung tissue) ([1]; animals challenged with M. haemolytica, FIG. 10): reduction
- time to equilibration of the lactone isomers [2]: under 1 hour

Structure (SMILES): CCCNC[C@]1(O)[C@H](C)O[C@@H](O[C@H]2[C@H](C)[C@@H](O[C@@H]3O[C@H](C)C[C@H](NC)[C@H]3O)[C@](C)(O)C[C@@H](C)CN[C@H](C)[C@@H](O)[C@](C)(O)[C@@H](CC)OC(=O)[C@@H]2C)C[C@@]1(C)OC [Example M9, (2R,3S,4R,5R,8R,10R,11R,12S,13S,14R)-2-ethyl-3,4,10-trihydroxy-13-(((2R,4R,5S,6S)-5-hydroxy-4-methoxy-4,6-dimethyl-5-((propylamino)methyl)-tetrahydro-2H-pyran-2-yl)oxy)-11-(((2S,3R,4S,6R)-3-hydroxy-6-methyl-4-(methylamino)tetrahydro-2H-pyran-2-yl)oxy)-3,5,8,10,12,14-hexamethyl-1-oxa-6-azacyclopentadecan-15-one, reference compound]
- MIC (E. coli): > 64 µg/mL
- maximum plasma concentration [3]: 5 µg/mL
- unique genes up or down regulated (with significance), total lung tissue RNA sequence analysis (P. multocida; M9 32 mg/kg (T03)): at least 226
- activation z-score, upstream regulator IFNG (P. multocida; [4]): −5.759
- activation z-score, upstream regulator IL-1β (P. multocida; [4]): −5.947
- activation z-score, upstream regulator STAT1 (P. multocida; [4]): −2.787
- activation z-score, upstream regulator TNF (P. multocida; [4]): −4.669
- activation z-score, upstream regulator lipopolysaccharide (P. multocida; [4]): −6.725
- activation z-score, upstream regulator poly rl:rC-RNA (P. multocida; [4]): −5.289
- Survival at Day 7 (P. multocida; subcutaneous 18 hours after challenge (5×10^3 CFU/mouse): tulathromycin 16 mg/kg, M9 32 mg/kg, ceftiofur 9 mg/kg, placebo 0%): ~50%
